Results as given in patent US3966715A, “Herbicidal agents” (Bayer Aktiengesellschaft, priority 1966, dated 1976).

Tests used:
[1] = tested on: Galinsoga; test: Post-emergence test, Galinsoga; format: in vivo; conditions: three weeks
Description: (§1) Solvent: 5 parts by weight acetone
(§2) 1 part by weight benzyloxypolyglycol ether
(§3) To produce a suitable preparation of the particular active compound, 1 part by weight of such active compound is mixed with the stated amount of solvent, the stated amount of emulsifier is then added and the resulting concentrate is thereafter diluted with water to the desired final concentration.
(§4) Test plants which have a height of about 5--15 cm. are sprayed with the preparation of the given active compound until just dew moist. After three weeks, the degree of damage to the plants is determined and characterized by the values 0-5, which have the following meaning:
(§5) The procedure of Example 2 is repeated, and the particular active compounds tested, and amounts applied, and the results obtained can be seen from the following Table 2E: […]

[2] = tested on: Echinochloa; test: Pre-emergence test, Echinochloa; format: in vivo; conditions: three weeks
Description: as §1, §2, §3
(§6) Seeds of the test plants are sown in normal soil and, after 24 hours, watered with the preparation of the given active compound. It is expedient to keep constant the amount of water per unit area. The concentration of the particular active compound in the preparation is of no importance, only the amount of active compound applied per unit area being decisive. After three weeks, the degree of damage to the test plants is determined and characterized by the values 0-5, which have the following meaning:
(§7) The procedure of Example 1 is repeated, and the particular active compounds tested, the amounts applied, and the results obtained can be seen from the following Table 1D: […]

[3] = tested on: dwarf beans; test: Defoliant test; format: in vivo; conditions: 0.05% active compound
Description: There is prepared, in the same manner as described in Example 1, an active compound preparation which contains 0.05% of
(1a") 3-methylthio-4-amino-6-phenyl-1,2,4-triazine-5-one.
A field of dwarf beans is sprayed with this preparation of the active compound so that the dwarf beans themselves are only just dripping wet.

[4] = tested on: Oats; test: Post-emergence test, oats; format: in vivo; conditions: three weeks
Description: as §1, §2, §3, §4, §5

[5] = tested on: Wheat; test: Pre-emergence test, wheat; format: in vivo; conditions: three weeks
Description: as §1, §2, §3, §6, §7

[6] = tested on: test plants; test: Pre-emergence test, overall; format: in vivo; conditions: Example 1
Description: as §1, §2, §3, §6, §7

[7] = tested on: Oats; test: Pre-emergence test, oats; format: in vivo; conditions: three weeks
Description: as §1, §2, §3, §6, §7

[8] = tested on: Sinapis; test: Post-emergence test, Sinapis; format: in vivo; conditions: three weeks
Description: as §1, §2, §3, §4, §5

[9] = tested on: Chenopodium; test: Post-emergence test, Chenopodium; format: in vivo; conditions: three weeks
Description: as §1, §2, §3, §4, §5

[10] = tested on: Wheat; test: Post-emergence test, wheat; format: in vivo; conditions: 2.4 Kg/hectare, three weeks
Description: as §1, §2, §3, §4, §5

[11] = tested on: Sinapis; test: Pre-emergence test, Sinapis; format: in vivo; conditions: three weeks
Description: as §1, §2, §3, §6, §7

[12] = tested on: soybeans; test: Pre-emergence selectivity, soybeans; format: in vivo
[13] = tested on: test plants; test: Post-emergence test, overall; format: in vivo
Description: as §1, §2, §3, §4, §5

[14] = tested on: Cotton; test: Pre-emergence test, cotton; format: in vivo; conditions: three weeks
Description: as §1, §2, §3, §6, §7

[15] = tested on: plants and weeds; test: General herbicidal activity; format: in vivo
[16] = tested on: Cotton; test: Post-emergence test, cotton; format: in vivo; conditions: 1.2 Kg/hectare, three weeks
Description: as §1, §2, §3, §4, §5

[17] = tested on: Echinochloa; test: Post-emergence test, Echinochloa; format: in vivo; conditions: 1.2 Kg/hectare, three weeks
Description: as §1, §2, §3, §4, §5

[18] = tested on: rats; test: Oral toxicity in rats; conditions: in words
[19] = Oral toxicity in rats; conditions: rat, in vivo, po
[20] = tested on: Alternaria; test: Fungicidal activity; format: in vivo; conditions: particularly against Alternaria
[21] = tested on: cotton and tomatoes; test: Pre-emergence selectivity, cotton and tomatoes; format: in vivo; conditions: pre-emergence application
[22] = tested on: corn, potatoes, millet and peanuts; test: Use in growing corn, potatoes, millet and peanuts; format: in vivo; conditions: 0.3-2 kg/hectare
[23] = tested on: nematoeds; test: Nematocidal activity on the soil; format: in vivo; conditions: 1 Kg/hectare

SMILES: CCNc1nc(Cl)nc(NCC)n1 [A, 2,6-di-(ethylamino)-4-chloro-1,3,5-triazine, reference compound]
- degree of damage, Galinsoga ([1]; 0.1 % active compound): 4-5
- degree of damage, Echinochloa ([2]; 5 kg/hectare): 3-4

SMILES: CSc1nnc(-c2ccccc2)c(=O)n1N [Compound 1a, 3-methylthio-4-amino-6-phenyl-1,2,4-triazine-5-one]
- harvesting of the beans [3]: quite considerably facilitated
- drying up of leaves ([3]; after 8 days): completely dried up
- degree of damage, Oats ([4]; 1.2 Kg/hectare): 4-5
- degree of damage, Oats ([4]; 2.4 Kg/hectare): 4-5
- degree of damage, Echinochloa ([2]; 1.25 kg/hectare): 4-5

SMILES: CSc1nnc(C2CCCCC2)c(=O)n1N [Compound 2, 3-methylthio-4-amino-6-cyclohexyl-1,2,4-triazine-5-one]
- degree of damage, Wheat ([5]; 1.25 kg/hectare): 4-5
- kind of herbicidal action [6]: pronouncedly total-herbicidal action
- degree of damage, Oats ([7]; 1.25 kg/hectare): 4-5

SMILES: CCSc1nnc(-c2ccccc2)c(=O)n1N [Compound 3, 3-ethylthio-4-amino-6-phenyl-1,2,4-triazine-5-one]
- kind of herbicidal action [6]: selectively herbicidal action in wheat and cotton

SMILES: Nn1c(N2CCCCC2)nnc(-c2ccccc2)c1=O [Compound 25, 3-piperidino-4-amino-6-phenyl-1,2,4-triazine-5-one]
- degree of damage, Sinapis ([8]; 10 Kg/hectare): 4-5
- degree of damage, Chenopodium ([9]; 10 Kg/hectare): 3-4

SMILES: CCNc1nnc(C(C)C)c(=O)n1N [Compound 177, 3-ethylamino-4-amino-6-isopropyl-1,2,4-triazine-5-one]
- degree of damage, Wheat [10]: 4-5
- degree of damage, Sinapis ([11]; 5 kg/hectare): 4-5
- degree of damage, Oats ([4]; 2.4 Kg/hectare): 4-5
- degree of damage, Galinsoga ([1]; 2.4 Kg/hectare): 4-5
- degree of damage, Oats ([7]; 2.5 kg/hectare): 4-5

SMILES: CSc1nnc(C(C)C)c(=O)n1NC(O)C(Cl)(Cl)Cl (stereo not drawn) [Compound 191, 3-methylthio-4-(β-trichloro-α-hydroxy-ethyl)-amino-6-isopropyl-1,2,4-triazine-5-one]
- degree of damage, Sinapis ([8]; 1.2 Kg/hectare): 4-5

SMILES: CSc1nnc(C(C)(C)C)c(=O)n1N=C1CCCCC1 [Compound 221, 3-methylthio-4-(cyclohexylidene-amino)-6-tert.-butyl-1,2,4-triazine-5-one]
- degree of damage, Wheat [10]: 4-5
- degree of damage, Wheat ([5]; 1.25 kg/hectare): 4-5
- selectivity [12]: selective for soybeans
- general herbicidal activity [13]: very good general herbicidal activity

SMILES: CSc1nnc(C(C)C)c(=O)n1N=C1CCCC1 [Compound 223, 3-methylthio-4-(cyclopentylidene-amino)-6-isopropyl-1,2,4-triazine-5-one]
- degree of damage, Sinapis ([11]; 1.25 kg/hectare): 4-5
- degree of damage, Wheat ([5]; 2.5 kg/hectare): 4-5
- degree of damage, Wheat ([5]; 5 kg/hectare): 4-5
- degree of damage, Cotton ([14]; 2.5 kg/hectare): 4-5
- degree of damage, Cotton ([14]; 5 kg/hectare): 4-5
- usefulness as herbicide ([15]; compared with compound 221): similarly useful
- degree of damage, Oats ([7]; 1.25 kg/hectare): 4-5
- degree of damage, Chenopodium ([9]; 1.2 Kg/hectare): 4-5
- degree of damage, Cotton [16]: 4-5
- degree of damage, Echinochloa [17]: 4-5

SMILES: CSc1nnc(C(C)(C)C)c(=O)n1N=Cc1ccccc1 [Compound 236]
- toxicity [18]: quite low
- LD50 [19]: 1000 mg/kg
- fungicidal activity [20]: exhibits fungicidal activity, particularly against Alternaria
- general properties ([15]; compared with compounds 221, 222, 223): same general properties
- selectivity [21]: selective as to cotton and tomatoes
- effectiveness in growing crops [22]: effective in growing corn, potatoes, millet and peanuts
- killing of nematodes [23]: kills nematoeds
